Consider two substances from US20220146500A1, “COMPOSITIONS AND METHODS FOR ENHANCING MUCOSAL IMMUNITY” (Yale University, priority 2019, published 2022).

One test concerns C. muridarum. The note with it: upper reproductive tract epithelial cell line; cited from earlier work.
The test system of another test is polyclonal T cell lines. Kind of test: Culture of Chlamydia-specific polyclonal T cell lines with TGFβ1, IL-13 in supernatant after anti-CD3 activation. The test is classed as cell-based, mouse. As for the experimental part:
FIG. 9 is a histogram depicting polyclonal T cell lines with fading IL-13 production cultured as per usual protocol and, in parallel, the usual protocol plus 10 ng/ml TGFβ1. At the end of one week the T cell lines were activated with immobilized anti-CD3 and IL-13 levels measured in culture supernatant. […] It was also noted that expansions in TGFβ1 conditions yielded˜50% more cells per well.
Conventional multifunction Chlamydia-specific Th1 clone 4uvmo-3 was previously described (Jayarapu et al., 2009, Infect Immun 77:4469-4479). For the new B-cell APC-derived T cells C57BL/6 mice were treated with 2.5 mg of medroxyprogesterone (Pfizer) delivered subcutaneously, then infected 7 days later with 5×10^4 IFU C. muridarum. Mice that cleared infection, >6 weeks post-infection, were used as the source of immune B and T cells. Initial Chlamydia-specific immune-B-cell-derived polyclonal T cell populations and clones were derived as follows. Splenocytes were harvested from immune mice. Immune B cells were purified from a portion of those splenocytes by “untouched” magnetic bead separation (Miltenyi Biotech). Immune B cells were pulsed with UV-MoPn (3.5×10^6 IFU equivalents per 7.5×10^5 B cells suspended at 7.5×10^6/ml; ˜5 IFU/cell) or soluble antigen (7.5 ul per 7.5×10^5 B cells suspended at 7.5×10^6/ml) for 1 h at 37° C. Antigen-pulsed immune B cells were transferred to 7.5 cc of “RPMI complete media”, pelleted, media containing antigen removed, then washed two more times with 7.5 cc of media (˜400,000-fold) to eliminate all non-cell bound or internalized Chlamydia antigen; the purpose of extended washing was to ensure that antigen presentation was limited to immune B cells. Primary stimulation wells were setup with 2.5×10^6 immune splenocytes plus 7.5×10^5 antigen-pulsed immune B cells in 0.75 ml “RPMI complete media” supplemented with recombinant cytokines and conditioned media as previously described (Johnson et al., 2014, Immunology 142:248-257); later T cell derivations during the course of the project included addition of 5 ng/ml recombinant murine TGFβ1 to the media. Limiting dilution cloning was done in media supplemented with recombinant cytokines/conditioned media with 10-20 ng/ml TGFβ1. Re-stimulation/maintenance of T cell clones was done weekly in 48-well plates by adding 100-200 k T cell clone cells to 1.5×10^6 irradiated naive splenocytes and 7.5×10^5 irradiated relevant-antigen-pulsed/washed immune B cells as feeders in media supplemented with recombinant cytokines/conditioned media including 2.5-10 ng/ml TGFβ1. Recombinant mouse cytokines were purchased from the same vendor (R&D Systems; Minneapolis, Minn.) except for TGFP1 (Ebioscience, San Diego, Calif.). […]

For IL-13: Th2 cytokine, the “effect on C. muridarum replication” value with C. muridarum is “modestly enhances C. muridarum replication”.

TGFβ1: recombinant murine TGFβ1: in the test with polyclonal T cell lines (10 ng/ml TGFβ1, lines with fading IL-13 production, anti-CD3 activation), the “IL-13 production after one week of culture” value is on record as “With the exception of B2 all the lines made more IL-13”. In addition, the “more cells per well in expansions” value with polyclonal T cell lines (TGFβ1 conditions versus usual protocol) is reported as around 50%. Moreover, in the test with polyclonal T cell lines (immune-B-cell-APC-derived polyclonal T cell lines), the “durable IL-13 production with increasing passage number” value is given as “required addition of TGFβ1 to the media”. In the test on polyclonal T cell lines (immune-splenocyte-APC-derived T cell lines), the IL-13 production entry is listed as “did not result in IL-13 production”.
